Laboratory results published in ChEMBL document CHEMBL2413072, “Synthesis and in vitro anticancer studies of novel C-2 arylidene congeners of lantadenes” (2013).

Assays:
Format in all cases: functional
NCI-H522 [1] = experiment: Growth inhibition of human NCI-H522 cells assessed as cell growth at 10^-7 M by sulforhodamine B assay; conditions: read-out: Activity
COLO 205 = experiment: Growth inhibition of human COLO205 cells assessed as cell growth at 10^-7 M by sulforhodamine B assay; conditions: read-out: Activity
786-0 = experiment: Growth inhibition of human 786-0 cells assessed as cell growth at 10^-8 M by sulforhodamine B assay; conditions: read-out: Activity
SK-MEL-28 [2] = experiment: Growth inhibition of human SK-MEL-28 cells assessed as cell growth at 10^-8 M by sulforhodamine B assay; conditions: read-out: Activity
UACC-62 = experiment: Growth inhibition of human UACC62 cells assessed as cell growth at 10^-4 M by sulforhodamine B assay; conditions: read-out: Activity
TK-10 [3] = experiment: Growth inhibition of human TK10 cells assessed as cell growth at 10^-4 M by sulforhodamine B assay; conditions: read-out: Activity
SF-539 [4] = experiment: Growth inhibition of human SF539 cells assessed as cell growth at 10^-6 M by sulforhodamine B assay; conditions: read-out: Activity
UACC-257 = experiment: Growth inhibition of human UACC257 cells assessed as cell growth at 10^-8 M by sulforhodamine B assay; conditions: read-out: Activity
T47D = experiment: Growth inhibition of human T47D cells assessed as cell growth at 10^-8 M by sulforhodamine B assay; conditions: read-out: Activity
A549 = experiment: Growth inhibition of human A549/ATCC cells assessed as cell growth at 10^-7 M by sulforhodamine B assay; conditions: read-out: Activity
TK-10 [5] = experiment: Growth inhibition of human TK10 cells assessed as cell growth at 10^-8 M by sulforhodamine B assay; conditions: read-out: Activity
A498 = experiment: Growth inhibition of human A498 cells assessed as cell growth at 10^-7 M by sulforhodamine B assay; conditions: read-out: Activity
IGROV-1 = experiment: Growth inhibition of human IGROV1 cells assessed as cell growth at 10^-8 M by sulforhodamine B assay; conditions: read-out: Activity
HCT-116 = experiment: Growth inhibition of human HCT116 cells assessed as cell growth at 10^-6 M by sulforhodamine B assay; conditions: read-out: Activity
MDA-MB-435 [6] = experiment: Growth inhibition of human MDA-MB-435 cells assessed as cell growth at 10^-8 M by sulforhodamine B assay; conditions: read-out: Activity
CAKI-1 = experiment: Growth inhibition of human CAKI-1 cells assessed as cell growth at 10^-7 M by sulforhodamine B assay; conditions: read-out: Activity
BT-549 = experiment: Growth inhibition of human BT549 cells assessed as cell growth at 10^-6 M by sulforhodamine B assay; conditions: read-out: Activity
OVCAR-8 = experiment: Growth inhibition of human OVCAR8 cells assessed as cell growth at 10^-8 M by sulforhodamine B assay; conditions: read-out: Activity
NCI-H522 [7] = experiment: Growth inhibition of human NCI-H522 cells assessed as cell growth at 10^-8 M by sulforhodamine B assay; conditions: read-out: Activity
CCRF-CEM [8] = experiment: Growth inhibition of human CCRF-CEM cells by sulforhodamine B assay
SK-MEL-28 [9] = experiment: Growth inhibition of human SK-MEL-28 cells assessed as cell growth at 10^-4 M by sulforhodamine B assay; conditions: read-out: Activity
HL-60(TB) = experiment: Growth inhibition of human HL-60(TB) cells assessed as cell growth at 10^-7 M by sulforhodamine B assay; conditions: read-out: Activity
SF-539 [10] = experiment: Growth inhibition of human SF539 cells assessed as cell growth at 10^-7 M by sulforhodamine B assay; conditions: read-out: Activity
OVCAR-4 = experiment: Growth inhibition of human OVCAR4 cells assessed as cell growth at 10^-8 M by sulforhodamine B assay; conditions: read-out: Activity
SF-295 = experiment: Growth inhibition of human SF295 cells assessed as cell growth at 10^-6 M by sulforhodamine B assay; conditions: read-out: Activity
NCI-H23 = experiment: Growth inhibition of human NCI-H23 cells by sulforhodamine B assay
NCI-H460 = experiment: Growth inhibition of human NCI-H460 cells assessed as cell growth at 10^-4 M by sulforhodamine B assay; conditions: read-out: Activity
MDA-MB-435 [11] = experiment: Growth inhibition of human MDA-MB-435 cells assessed as cell growth at 10^-7 M by sulforhodamine B assay; conditions: read-out: Activity
MDA-MB-231 = experiment: Growth inhibition of human MDA-MB-231 cells by sulforhodamine B assay
HT-29 [12] = experiment: Growth inhibition of human HT-29 cells assessed as cell growth at 10^-4 M by sulforhodamine B assay; conditions: read-out: Activity
SW-620 = experiment: Growth inhibition of human SW620 cells assessed as cell growth at 10^-6 M by sulforhodamine B assay; conditions: read-out: Activity
SK-MEL-2 = experiment: Growth inhibition of human SK-MEL-2 cells by sulforhodamine B assay
HCT-15 = experiment: Growth inhibition of human HCT15 cells assessed as cell growth at 10^-7 M by sulforhodamine B assay; conditions: read-out: Activity
SN12C = experiment: Growth inhibition of human SN12C cells by sulforhodamine B assay
HOP-92 = experiment: Growth inhibition of human HOP92 cells by sulforhodamine B assay
[13] = Growth inhibition of human HCC2998 cells assessed as cell growth at 10^-8 M by sulforhodamine B assay; conditions: HCC 2998, read-out: Activity
HT-29 [14] = experiment: Growth inhibition of human HT-29 cells assessed as cell growth at 10^-6 M by sulforhodamine B assay; conditions: read-out: Activity
DU-145 = experiment: Growth inhibition of human DU145 cells assessed as cell growth at 10^-7 M by sulforhodamine B assay; conditions: read-out: Activity
CCRF-CEM [15] = experiment: Growth inhibition of human CCRF-CEM cells assessed as cell growth at 10^-7 M by sulforhodamine B assay; conditions: read-out: Activity
Malme-3M = experiment: Growth inhibition of human MALME-3M cells assessed as cell growth at 10^-8 M by sulforhodamine B assay; conditions: read-out: Activity
[16] = read-out: LC50 (the source's name)
[17] = read-out: pLC50 (the source's name) (converted)

SMILES: C/C=C(/C)C(=O)O[C@@H]1CC(C)(C)C[C@H]2C3=CC[C@@H]4[C@@]5(C)CCC(=O)C(C)(C)[C@@H]5CC[C@@]4(C)[C@]3(C)CC[C@@]12C(=O)O [LANTADENE A]
- growth at 0.1 µM (NCI-H522 [1]): 97%
- growth at 0.1 µM (COLO 205): 110%
- growth at 0.01 µM (786-0): 95%
- growth at 0.01 µM (SK-MEL-28 [2]): 97%
- growth at 100 µM (UACC-62): -70%
- growth at 100 µM (TK-10 [3]): 6%
- growth at 1 µM (SF-539 [4]): 106%
- growth at 0.01 µM (UACC-257): 96%
- growth at 0.01 µM (T47D): 99%
- growth at 0.1 µM (A549): 90%
- growth at 0.01 µM (TK-10 [5]): 99%
- growth at 0.1 µM (A498): 86%
- growth at 0.01 µM (IGROV-1): 108%
- growth at 1 µM (HCT-116): 86%
- growth at 0.01 µM (MDA-MB-435 [6]): 96%
- growth at 0.1 µM (CAKI-1): 94%
- growth at 1 µM (BT-549): 90%
- growth at 0.01 µM (OVCAR-8): 97%
- growth at 0.01 µM (NCI-H522 [7]): 109%
- GI50 (CCRF-CEM [8]; read-out: GI50): 3.48 µM
- CC50 (CCRF-CEM [8]; [16]): > 100 µM
- TGI (CCRF-CEM [8]; read-out: TGI): > 100 µM
- GI50 (CCRF-CEM [8]; read-out: pGI50 (converted)): 3.47 µM
- CC50 (CCRF-CEM [8]; [17]): > 100 µM
- TGI (CCRF-CEM [8]; read-out: pTGI (converted)): > 100 µM
- growth at 100 µM (SK-MEL-28 [9]): 42%
- growth at 0.1 µM (HL-60(TB)): 96%
- growth at 0.1 µM (SF-539 [10]): 103%
- growth at 0.01 µM (OVCAR-4): 95%
- growth at 1 µM (SF-295): 88%
- GI50 (NCI-H23; read-out: GI50): 4.55 µM
- CC50 (NCI-H23; [16]): > 100 µM
- TGI (NCI-H23; read-out: TGI): > 100 µM
- GI50 (NCI-H23; read-out: pGI50 (converted)): 4.57 µM
- CC50 (NCI-H23; [17]): > 100 µM
- TGI (NCI-H23; read-out: pTGI (converted)): > 100 µM
- growth at 100 µM (NCI-H460): 8%
- growth at 0.1 µM (MDA-MB-435 [11]): 95%
- GI50 (MDA-MB-231; read-out: GI50): 4.53 µM
- CC50 (MDA-MB-231; [16]): > 100 µM
- TGI (MDA-MB-231; read-out: TGI): 33.4 µM
- GI50 (MDA-MB-231; read-out: pGI50 (converted)): 4.57 µM
- CC50 (MDA-MB-231; [17]): > 100 µM
- TGI (MDA-MB-231; read-out: pTGI (converted)): 33.1 µM
- growth at 100 µM (HT-29 [12]): 19%
- growth at 1 µM (SW-620): 90%
- GI50 (SK-MEL-2; read-out: GI50): 3.07 µM
- CC50 (SK-MEL-2; [16]): > 100 µM
- TGI (SK-MEL-2; read-out: TGI): 8.07 µM
- GI50 (SK-MEL-2; read-out: pGI50 (converted)): 3.09 µM
- CC50 (SK-MEL-2; [17]): > 100 µM
- TGI (SK-MEL-2; read-out: pTGI (converted)): 8.13 µM
- growth at 0.1 µM (HCT-15): 106%
- GI50 (SN12C; read-out: GI50): 3.47 µM
- CC50 (SN12C; [16]): > 100 µM
- TGI (SN12C; read-out: TGI): > 100 µM
- GI50 (SN12C; read-out: pGI50 (converted)): 3.47 µM
- CC50 (SN12C; [17]): > 100 µM
- TGI (SN12C; read-out: pTGI (converted)): > 100 µM
- GI50 (HOP-92; read-out: GI50): 1.19 µM
- CC50 (HOP-92; [16]): > 100 µM
- TGI (HOP-92; read-out: TGI): 5.36 µM
- GI50 (HOP-92; read-out: pGI50 (converted)): 1.2 µM
- CC50 (HOP-92; [17]): > 100 µM
- TGI (HOP-92; read-out: pTGI (converted)): 5.37 µM
- growth at 0.01 µM [13]: 106%
- growth at 1 µM (HT-29 [14]): 85%
- growth at 0.1 µM (DU-145): 107%
- growth at 0.1 µM (CCRF-CEM [15]): 97%
- growth at 0.01 µM (Malme-3M): 98%
